{"source": "patent US20060264418A1", "about": "“6-(2,2,2-Trifluoroethylamino-7-chloro-2,3,4,5-tetrahydro-1h-benzo[d] azephine as a 5-ht2c receptor agonist” (priority 2003, published 2006)", "key": {"[1]": {"system": "male NIH Swiss mice", "assay": "Marble burying assay (with rotorod)", "format": "in vivo, mouse", "conditions": "30 min. burying session", "source_text": "Marble burying in mice has been used to model anxiety disorders including obsessive-compulsive disorders (OCD) due to ethological study of the behavior (e.g. Gyertyan I. “Analysis of the marble burying response: Marbles serve to measure digging rather than evoke burying”, Behavioural Pharmacology 6: 24-31, (1995)) and due to the pharmacological effects of clinical standards (c.f., Njung′E K. Handley S L. “Evaluation of marble-burying behavior as a model of anxiety”, Pharmacology, Biochemistry & Behavior. 38: 63-67, (1991)); Borsini F., Podhorna J., and Marazziti, D. “Do animal models of anxiety predict anxiolytic effects of antidepressants?”, Psychopharmacology 163: 121-141, (2002)). Thus, drugs used in the treatment of generalized anxiety in humans (e.g. benzodiazepines) as well as compounds used to treat OCD (e.g. SSRIs like fluoxetine) decrease burying.\nHouse experimentally-naïve male, NIH Swiss mice (Harlan Sprague-Dawley, Indianapolis, Ind.) weighing between 28-35 g in groups of 12 for at least three days prior to testing in a vivarium with 12 hr. light and dark cycles. Conduct experiments during the light cycle in a dimly lit experimental testing room. Dose mice with vehicle or compound and, after a specified pretreatment interval (generally 30 min.), place each mouse individually on a rotorod (Ugo Basile 7650) operating at a speed of 6 revolutions/min. and observe for falling. After 2 min. on the rotorod, place the mice individually in a 17×28×12 cm high plastic tub with 5 mm sawdust shavings on the floor that are covered with 20 blue marbles (1.5 cm diameter) placed in the center. After 30 min., count the number of marbles buried (⅔ covered with sawdust). Assess the compound's effect on marble burying with Dunnett's test and the effect on rotorod performance by Fisher's exact test.\nClinically effective standard compounds suppress marble burying at doses that are devoid of motor-impairing effects as measured on the rotorod. […]"}, "[2]": {"system": "Wistar rats", "conditions": "general statement on standards; cited from earlier work"}, "[3]": {"system": "Wistar rats", "assay": "Schedule-induced polydipsia", "format": "in vivo, rat", "source_text": "Food-deprived rats exposed to intermittent presentations of food will drink amounts of water that are far in excess of their normal daily intake and in excess of their intake when given all of their food at one time (Falk J L. “Production of polydipsia in normal rats by an intermittent food schedule”, Science 133: 195-196, (1961)). This excessive behavior is persistent and has been used to model OCD.\nMaintain Wistar rats on a food restricted diet (to maintain 85% free feeding weight), but with free access to water. Train the rats in a behavioral testing chamber to press a lever to receive a food pellet under a fixed interval schedule, such that the rats are rewarded with a 45 mg food pellet the first time they press a lever after a 120 second interval has elapsed. The fixed interval is then reset to 120 seconds and the process repeated. Thus, during a 90 min. test session, the rats can earn a maximum of 45 pellets. The behavioral chamber is also equipped with a water bottle that is weighed before and after the session to determine the amount of water consumed.\nAdminister test compounds on Tuesdays and Fridays. Determine control day performances on Thursdays. Administer compounds either orally at 60 min. before the beginning of a test session, or subcutaneously at 20 min. before the beginning of a test session. Compare the rates of lever pressing and water consumption for each animal's performance during sessions after test compound treatment with that animal's performance during control sessions, expressed as a percent of the control rate. Average the individual percent of control rates for each dose and calculate the standard error of the mean.\nThe in vivo efficacy of 5HT2C compounds at the 5HT2C receptor was confirmed by the prevention of effects of the 5HT2C agonists on excessive drinking by co-administration of the 5HT2C receptor antagonist, 6-chloro-5-methyl-N-(2-(2-methylpyridin-3-yl-oxy)pyridin-5-yl)aminocarbonyl)-2,3-dihydroindole."}, "[4]": {"system": "male NIH Swiss mice", "assay": "Nestlet shredding", "format": "in vivo, mouse", "conditions": "30 min.", "source_text": "Mice naturally will construct nests of material available in their living environment. Since this behavior is obsessive in nature, it has been used to model OCD (Mia Li, Denise Morrow and Jeffrey M. Witkin, “Decreases in nestlet shredding of mice by serotonin uptake inhibitors: comparison with marble burying”, Psychopharmacology, submitted Jul. 14, 2003). House experimentally-naïve male, NIH Swiss mice (Harlan Sprague-Dawley, Indianapolis, Ind.) weighing between 28-35 g in groups of 12 for at least three days prior to testing in a vivarium with a 12 hr. light/dark cycle. Conduct experiments during the light cycle in an experimental room with normal overhead fluorescent lighting. Dose mice with vehicle or test compound and after a specified pretreatment interval (generally 30 min.), place the mice individually in a 17×28×12 cm high plastic tub with about 5 mm sawdust shavings on the floor along with a pre-weighed multi-ply gauze pad (51 mm square). After 30 min., weigh the remainder of the gauze pad not removed by the mouse. Determine the weight of the gauze used for nestlet construction by subtraction. Compare the results for test compound treated mice to the results for vehicle control treated mice with Dunnett's test.\nClinically effective OCD treatment standard compounds suppress nestlet shredding at doses that are devoid of motor-impairing effects as measured by the rotorod test. […]"}}}
{"smiles": "CN(C)CCCN1c2ccccc2Sc2ccc(Cl)cc21", "note": "[chlorpromazine, reference compound]", "values": [{"measurement": "marble burying behavior (relative to rotorod performance)", "setting": "[1]", "value": "decreased marble burying only at doses that also disrupt rotorod performance"}]}
{"smiles": "CN(C)CCCN1c2ccccc2CCc2ccc(Cl)cc21", "note": "[chlomipramine]", "values": [{"measurement": "schedule-induced polydipsia, clinically effective OCD treatment standard compounds", "setting": "[2]", "value": "suppress schedule-induced polydipsia without producing notable changes in motor patterns, food intake, or behavior the following day"}]}
{"smiles": "C[C@H](N)Cc1ccccc1", "note": "[d-amphetamine, reference compound]", "values": [{"measurement": "schedule-induced polydipsia (excessive drinking)", "setting": "[3]; food restricted rats, 90 min. test session", "value": "decreases excessive drinking only at behaviorally stimulating doses"}, {"measurement": "suppression of excessive drinking with co-administration of the 5-HT2C receptor antagonist", "setting": "[3]; rats", "value": "not prevented"}, {"measurement": "nestlet shredding (relative to motor effects, rotorod test)", "setting": "[4]", "value": "decrease nestlet shredding only at doses that produce motoric side effects"}]}
{"smiles": "CNCCC(Oc1ccc(C(F)(F)F)cc1)c1ccccc1", "note": "(stereo not shown) [fluoxetine]", "values": [{"measurement": "schedule-induced polydipsia, clinically effective OCD treatment standard compounds", "setting": "[2]", "value": "suppress schedule-induced polydipsia without producing notable changes in motor patterns, food intake, or behavior the following day"}]}
{"smiles": "FC(F)(F)CNc1c(Cl)ccc2c1CCNCC2", "values": [{"measurement": "melting point", "value": "183 to 185.2", "unit": "°C"}]}
